Results taken from US20230322813A1, “COMPOUNDS AND METHODS FOR TREATMENT OF VIRAL INFECTIONS” (Gilead Sciences, Inc., priority 2022, published 2023).
pEC50: −log10 of the molar value. Read-outs that look alike come from different tables or passages of the source.

What was measured:
[1] = system: SARS Coronavirus 2 recombinant with NanoLuc (SARS-CoV2-NLuc); assay: organism not typed; type: cell-based; conditions: 48 h
[2] = system: Respiratory syncytial virus recombinant with luciferase (RSV-Luc5); assay: microbe, parasite or virus in culture; type: cell-based; conditions: human respiratory syncytial virus, HEp-2, 72 h, read-out: RSV Hep2 EC50
[3] = system: Respiratory syncytial virus recombinant with luciferase (RSV-Luc5); assay: microbe, parasite or virus in culture; type: cell-based; conditions: human respiratory syncytial virus, NHBE, 72 h, read-out: RSV NHBE EC50
[4] = in vitro; type: cell-based; conditions: human
Protocol: Cytotoxicity of the compounds was determined in uninfected cells using the cell viability reagent in a similar fashion as described before for other cell types (Cihlar et al., Antimicrob Agents Chemother. 2008, 52(2):655-65). HEp-2 (1.5×10^3 cells/well) and MT-4 (2×10^3 cells/well) cells were plated in 384-well plates and incubated with the appropriate medium containing 3-fold serially diluted compound ranging from 15 nM to 100,000 nM. Cells were cultured for 4-5 days at 37° C. Following the incubation, the cells were allowed to equilibrate to 25° C., and cell viability was determined by adding Cell-Titer Glo viability reagent. The mixture was incubated for 10 min, and the luminescence signal was quantified using an Envision plate reader. Untreated cell and cells treated at 2 μM puromycin (Sigma, St. Louis, MO) serve as 100% and 0% cell viability control, respectively.

[5] = parameters: species or system Sprague-Dawley rats; conditions: male, Sprague-Dawley, rat, in vivo, po; for Reference Compound A F %: 1 mg/kg; for Cmax / Reference Compound A AUCinf.: 8.1 mg/kg
Protocol: Ester Reference Compound, Compound 3 and Compound 6 were dosed orally by gavage to male Sprague-Dawley rats (n=3/group); Ester Reference Compound at 6 mg/kg in 2.5% Dimethyl sulfoxide; 10% Kolliphor HS-15; 10% Labrasol; 2.5% Propylene glycol and 75% water, pH 2.5; Compound 3 at 6.65 mg/kg in 10% Dimethyl sulfoxide; 40% Kolliphor HS-15; 40% Labrasol and 10% Propylene glycol and Compound 6 at 8.1 mg/kg in 2.5% Dimethyl sulfoxide; 10% Kolliphor HS-15; 10% Labrasol; 2.5% Propylene glycol and 75% water, pH 2.8. Blood samples were collected into pre-chilled collection tubes containing K2EDTA and processed to plasma at 10 time points over a span of pre-dose to 24 h post-administration. Plasma samples were subject to protein precipitation with a 12.5-fold volume of methanol, vortexed and centrifuged. Supernatants were transferred and evaporated to dryness under nitrogen and reconstituted with 5% acetonitrile in water. Separation was achieved on a Phenomenex Synergi Polar-RP column, a mobile phase A of 10 mM ammonium formate with 0.1% formic acid in water and a mobile phase B of 0.1% formic acid in acetonitrile with a step-wise linear gradient from 5 to 95% mobile phase B. An LC-MS/MS method was used to measure the concentrations of the Reference Compound A and either Ester Reference Compound, Compound 3 or Compound 6 in plasma.

SMILES | pEC50 [1] | pEC50 [2] | pEC50 [3] | CC50 [4] | Reference Compound A F % [5] | Cmax [5] | Reference Compound A AUCinf. [5]
CC(C)C(=O)OC[C@H]1O[C@@](C#N)(c2ccc3c(N)ncnn23)[C@@H]2OC(=O)O[C@@H]21 [Compound 3, ((3aR,4R,6R,6aR)-6-(4-aminopyrrolo[2,1-f][1,2,4]triazin-7-yl)-6-cyano-2-oxotetrahydrofuro[3,4-d][1,3]dioxol-4-yl)methyl isobutyrate] | 5.76 | 6.48 | 6.29 | 50000 nM | 84.7% | 2280 nM | 10.7 µM·h
COC1O[C@H]2[C@@H](O1)[C@](C#N)(c1ccc3c(N)ncnn13)O[C@@H]2COC(=O)C(C)C (stereo partly drawn) [Compound 4, ((3aR,4R,6R,6aR)-6-(4-aminopyrrolo[2,1-f][1,2,4]triazin-7-yl)-6-cyano-2-methoxytetrahydrofuro[3,4-d][1,3]dioxol-4-yl)methyl isobutyrate] | < 4.30 | – | – | > 5000 nM | – | – | –
CC(C)C(=O)OC[C@H]1O[C@@](C#N)(c2ccc3c(=N)n(COP(=O)(O)OCc4ccccc4)cnn23)[C@H](O)[C@@H]1O [Compound 5, ((2R,3S,4R,5R)-5-(3-((((benzyloxy)(hydroxy)phosphoryl)oxy)methyl)-4-imino-3,4-dihydropyrrolo[2,1-f][1,2,4]triazin-7-yl)-5-cyano-3,4-dihydroxytetrahydrofuran-2-yl)methyl isobutyrate] | < 4.30 | – | – | > 50000 nM | – | – | –
CC(C)C(=O)OC[C@H]1O[C@@](C#N)(c2ccc3c(=N)n(COP(=O)(O)O)cnn23)[C@H](O)[C@@H]1O [Compound 6, ((2R,3S,4R,5R)-5-cyano-3,4-dihydroxy-5-(4-imino-3-((phosphonooxy)methyl)-3,4-dihydropyrrolo[2,1-f][1,2,4]triazin-7-yl)tetrahydrofuran-2-yl)methyl isobutyrate] | 5.44 | 6.14 | 5.45 | 50000 nM | 54.4% | 3080 nM | 6.86 µM·h
CC(=O)Nc1ncnn2c([C@]3(C#N)O[C@H](COC(C)=O)[C@@H](OC(C)=O)[C@H]3OC(C)=O)ccc12 [Compound 7, (2R,3R,4R,5R)-2-(4-acetamidopyrrolo[2,1-f][1,2,4]triazin-7-yl)-5-(acetoxymethyl)-2-cyanotetrahydrofuran-3,4-diyl diacetate] | 5.26 | – | 6.03 | – | – | – | –
CCCC(=O)Nc1ncnn2c([C@]3(C#N)O[C@H](COC(C)=O)[C@@H](OC(C)=O)[C@H]3OC(C)=O)ccc12 [Compound 8, (2R,3R,4R,5R)-5-(acetoxymethyl)-2-(4-butyramidopyrrolo[2,1-f][1,2,4]triazin-7-yl)-2-cyanotetrahydrofuran-3,4-diyl diacetate] | 5.50 | – | 6.39 | – | – | – | –
CCCC(=O)Nc1ncnn2c([C@]3(C#N)O[C@H](COC(=O)C(C)C)[C@@H](O)[C@H]3O)ccc12 [Compound 9, ((2R,3S,4R,5R)-5-(4-butyramidopyrrolo[2,1-f][1,2,4]triazin-7-yl)-5-cyano-3,4-dihydroxytetrahydrofuran-2-yl)methyl isobutyrate] | 5.71 | 6.28 | – | > 50000 nM | – | – | –
CCCCCC(=O)Nc1ncnn2c([C@]3(C#N)O[C@H](COC(=O)C(C)C)[C@@H](O)[C@H]3O)ccc12 [Compound 10, ((2R,3S,4R,5R)-5-cyano-5-(4-hexanamidopyrrolo[2,1-f][1,2,4]triazin-7-yl)-3,4-dihydroxytetrahydrofuran-2-yl)methyl isobutyrate] | 5.91 | – | – | > 50000 nM | – | – | –
CCCCCCCC(=O)Nc1ncnn2c([C@]3(C#N)O[C@H](COC(=O)C(C)C)[C@@H](O)[C@H]3O)ccc12 [Compound 11, ((2R,3S,4R,5R)-5-cyano-3,4-dihydroxy-5-(4-octanamidopyrrolo[2,1-f][1,2,4]triazin-7-yl)tetrahydrofuran-2-yl)methyl isobutyrate] | 6.03 | – | 6.73 | 42400 nM | – | – | –
CC(C)C(=O)OC[C@H]1O[C@@](C#N)(c2ccc3c(N)ncnn23)[C@H](O)[C@@H]1O [Ester Reference Compound, reference compound] | – | – | – | – | – | 2100 nM | 7.57 µM·h
